A word on the LogP: it is a log measure of how a compound divides between an organic and an aqueous phase.

Consider 19 molecules from US20250339399A1, “SUPRAMOLECULAR SELF-ASSEMBLY SYSTEM” (Beijing Creatron Institute of Pharmaceutical Research Co., …, priority 2022, published 2025).

For data set [1] the following is noted: human use, cited from earlier work.
The conditions of data set [2]: cited from earlier work; for Sol / LogP: natural flavonoids (chalcone, dihydrochalcone class), Table 1 basic information; for solubility value given in Table 1 (basic information of natural flavonoids): parent flavonoid of the class.
Data set [3] can be described thus: Guest molecule concentration after incubation in initial medium without polymer (Comparative Example 1). The settings on record: 37° C., pH 6.8 phosphate buffer. Type of data set: physicochemical. In short, it runs like this:
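Dissolved guest content measured by HPLC of centrifuged supernatants (37° C., 13000 rpm, 5 min) sampled at 0.5 h, 3 h and 6 h. Incubation was polymer-free at 37° C.±0.5° C. in buffers of pH 2.0-7.4; nominal loading was set by maximum clinical dose.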

Data set [4] in a line: Binary supramolecular self-assembly systems of polymer and target: guest concentration over incubation time (Comparative Example 2). In kind it is physicochemical. Particulars: for Concentration of guest molecule in solution / Times that of the initial medium: 6 h. On the procedure: Experiments were conducted according to the steps in Comparative Example 1, and quantitative analysis was carried out using the analytical method for each target to investigate the regulation ability […] stacking.

The conditions of data set [5]: cited from earlier work.

Where a name gives a salt, the structure may show the parent alone. Read-outs that look alike come from different tables or passages of the source.

Regarding “Neohesperidin dihydrochalcone [compound 310]”, in data set [1] (bw: body weight), the “Acceptable daily intake (ADI)” value is 3-5 mg/kg bw/day.
On to `O=C(OC[C@H]1O[C@@H](OC(=O)c2cc(O)c(O)c(OC(=O)c3cc(O)c(O)c(O)c3)c2)[C@H](OC(=O)c2cc(O)c(O)c(OC(=O)c3cc(O)c(O)c(O)c3)c2)[C@@H](OC(=O)c2cc(O)c(O)c(OC(=O)c3cc(O)c(O)c(O)c3)c2)[C@@H]1OC(=O)c1cc(O)c(O)c(OC(=O)c2cc(O)c(O)c(O)c2)c1)c1cc(O)c(O)c(OC(=O)c2cc(O)c(O)c(O)c2)c1` [compound 316, Tannic acid], for which the “Acceptable daily intake (ADI)” value in data set [1] (bw: body weight) is 15 mg/kg bw/day.
Turning to `C=C1C[C@@]23CC[C@H]4[C@@](C)(CCC[C@@]4(C)C(=O)O[C@@H]4O[C@H](CO)[C@@H](O)[C@H](O)[C@H]4O)[C@@H]2CC[C@]1(O[C@@H]1O[C@H](CO)[C@@H](O)[C@H](O)[C@H]1O[C@@H]1O[C@H](CO)[C@@H](O)[C@H](O)[C@H]1O)C3` [compound 315, Stevioside], the “Acceptable daily intake (ADI)” value in data set [1] (bw: body weight) was 4 mg/kg bw/day.
For the molecule `O=C(O[C@@H]1Cc2c(O)cc(O)cc2O[C@@H]1c1cc(O)c(O)c(O)c1)c1cc(O)c(O)c(O)c1` [compound 303, (−)−Epigallocatechin 3-gallate], the “Acceptable daily intake (ADI)” value in data set [1] is recorded as 135-270 mg/person/ day mg/person/day.
As to `C[C@@H]1O[C@@H](O[C@H]2[C@H](Oc3cc(O)c(C(=O)CCc4ccc(O)cc4)c(O)c3)O[C@H](CO)[C@@H](O)[C@@H]2O)[C@H](O)[C@H](O)[C@H]1O` [compound 312, Naringin dihydrochalcone], the “Acceptable daily intake (ADI)” value in data set [1] is on record as 41 mg/person/ day mg/person/day.
Regarding `COc1ccc([C@@H]2CC(=O)c3c(O)cc(O[C@@H]4O[C@H](CO)[C@@H](O)[C@H](O)[C@H]4O[C@@H]4O[C@@H](C)[C@H](O)[C@@H](O)[C@H]4O)cc3O2)cc1O` [compound 318, Neohesperidin], the “Acceptable daily intake (ADI)” value in data set [1] (bw: body weight) was 5 mg/kg bw/day.
Regarding Myricitrin [compound 306], the “Acceptable daily intake (ADI)” value in data set [1] (bw: body weight) is given as 14 mg/kg bw/day.
With `C=C1C[C@@]23CC[C@H]4[C@@](C)(CCC[C@@]4(C)C(=O)O[C@@H]4O[C@H](CO)[C@@H](O)[C@H](O[C@@H]5O[C@H](CO)[C@@H](O)[C@H](O)[C@H]5O)[C@H]4O[C@@H]4O[C@H](CO)[C@@H](O)[C@H](O)[C@H]4O)[C@@H]2CC[C@]1(O[C@@H]1O[C@H](CO)[C@@H](O)[C@H](O[C@@H]2O[C@H](CO)[C@@H](O)[C@H](O)[C@H]2O)[C@H]1OC1O[C@H](CO)[C@@H](O)[C@H](O)[C@H]1O)C3` (some centres unmarked) [compound 321, Rebaudioside M], the “Acceptable daily intake (ADI)” value in data set [1] (bw: body weight) is listed as 4 mg/kg bw/day.
As for `C=C1C[C@@]23CC[C@H]4[C@@](C)(CCC[C@@]4(C)C(=O)O[C@@H]4O[C@H](CO)[C@@H](O)[C@H](O)[C@H]4O[C@@H]4O[C@H](CO)[C@@H](O)[C@H](O)[C@H]4O)[C@@H]2CC[C@]1(O[C@@H]1O[C@H](CO)[C@@H](O)[C@H](O[C@@H]2O[C@H](CO)[C@@H](O)[C@H](O)[C@H]2O)[C@H]1OC1O[C@H](CO)[C@@H](O)[C@H](O)[C@H]1O)C3` (some centres unmarked) [compound 320, Rebaudioside D], the “Acceptable daily intake (ADI)” value in data set [1] (bw: body weight) is reported as 3-5 mg/kg bw/day.
`CC1(C)[C@@H](O[C@H]2O[C@H](C(=O)O)[C@@H](O)[C@H](O)[C@H]2O[C@@H]2O[C@H](C(=O)O)[C@@H](O)[C@H](O)[C@H]2O)CC[C@]2(C)[C@H]3C(=O)C=C4[C@@H]5C[C@@](C)(C(=O)O)CC[C@]5(C)CC[C@@]4(C)[C@]3(C)CC[C@@H]12` [compound 314, Glycyrrhizic acid and its ammonium salt]: in data set [1] (bw: body weight), the “Acceptable daily intake (ADI)” value is recorded as 2 mg/kg bw/day.
Regarding `O=C(CCc1ccc(O)cc1)c1c(O)cc(O)cc1O[C@@H]1O[C@H](CO)[C@@H](O)[C@H](O)[C@H]1O` [Phloridzin, 1-[2,4-dihydroxy-6-[(2S,3R,4S,5S,6R)-3,4,5-trihydroxy-6-(hydroxymethyl)oxo-2-yl]oxophenyl]-3-(4-hydroxyphenyl)propan-1-one], the Sol in data set [2] was 3.89 mg/mL.
For the molecule `O=c1cc(-c2ccc(O)c(O)c2)oc2cc(O)cc(O)c12` [Luteolin], in data set [2] (no unit printed in the heading), the “solubility value given in Table 1 (basic information of natural flavonoids)” value is given as “Luteolin (CAS: 491-70-3) derivatives-0.40”.
`O=C(CCc1ccc(O)c(O)c1)c1c(O)cc(O)c([C@@H]2O[C@H](CO)[C@@H](O)[C@H](O)[C@H]2O)c1O` [Aspalathin, 3-(3,4-dihydroxyphenyl)-1-{2,4,6-trihydroxy-3-[3,4,5-trihydroxy-6-(hydroxymethyl)oxo-2-yl]phenyl]propan-1-one]: in data set [2], the LogP is on record as 0.83 and the Sol is 36.12 mg/mL.
Regarding `C[C@H](CC[C@@H](O[C@@H]1O[C@H](CO[C@@H]2O[C@H](CO)[C@@H](O)[C@H](O)[C@H]2O)[C@@H](O)[C@H](O)[C@H]1O[C@@H]1O[C@H](CO)[C@@H](O)[C@H](O)[C@H]1O)C(C)(C)O)[C@H]1CC[C@@]2(C)[C@@H]3CC=C4[C@@H](CC[C@H](O[C@@H]5O[C@H](CO[C@@H]6O[C@H](CO)[C@@H](O)[C@H](O)[C@H]6O)[C@@H](O)[C@H](O)[C@H]5O)C4(C)C)[C@]3(C)[C@H](O)C[C@]12C` [compound 319, Mogroside V], the “Acceptable daily intake (ADI)” value in data set [1] (bw: body weight) is given as 0-2.5 mg/kg bw/day.
Turning to `C=C1C[C@@]23CC[C@H]4[C@@](C)(CCC[C@@]4(C)C(=O)O[C@@H]4O[C@H](CO)[C@@H](O)[C@H](O)[C@H]4O)[C@@H]2CC[C@]1(O[C@@H]1O[C@H](CO)[C@@H](O)[C@H](O[C@@H]2O[C@H](CO)[C@@H](O)[C@H](O)[C@H]2O)[C@H]1O[C@@H]1O[C@@H](C)[C@H](O)[C@@H](O)[C@H]1O)C3` [compound 308, Rebaudioside C], in data set [1] (bw: body weight), the “Acceptable daily intake (ADI)” value is listed as 6 mg/kg bw/day.
As for Isoquercitrin [compound 304], the “Acceptable daily intake (ADI)” value in data set [1] (bw: body weight) is given as 3.3 mg/kg bw/day.
On to `O=C(CCc1ccc(O)c(O)c1)c1c(O)cc(O)cc1O[C@@H]1O[C@H](CO)[C@@H](O)[C@H](O)[C@H]1O` [3-hydroxyphloretin 2′-glucoside], for which, in data set [2], the LogP was 0.67 and the Sol is 11.65 mg/mL.
Regarding `C[C@@H]1O[C@@H](O[C@H]2[C@H](Oc3cc(O)c(C(=O)CCc4ccc(O)c(O)c4)c(O)c3)O[C@H](CO)[C@@H](O)[C@@H]2O)[C@H](O)[C@H](O)[C@H]1O` [Neoeriocitrin dihydrochalcone, 1-[4-[(2S,3R,4S,5S,6R)-4,5-dihydroxy-6-(hydroxymethyl)-3-[(2S,3R,4R,5R,6S)-3,4,5-trihydroxy-6-methoxy-2-yl]oxy-2-yl]oxy-2,6-dihydroxyphenyl]-3-(3,4-dihydroxyphenyl)propan-1-one], the Sol in data set [2] was 21.89 mg/mL.
Consider `O=C1C[C@@H](c2ccc(O)cc2)Oc2cc(O)cc(O)c21` [Naringenin], for which the “Concentration of guest molecule measured after different incubated time” value came out at 169.9 µg/mL in data set [3] (0.5 h), 126.7 µg/mL in data set [3] (3 h) and 129.1 µg/mL in data set [3] (6 h). Besides, the “Concentration of the target in the solution measured after different incubation time” value (“Concentration … after different incubation time” below) in data set [4] (binary system with 0.5% polymer 101, incubation 0.5 h) amounted to 412.1 µg/mL; in data set [4] (binary system with 0.5% polymer 101, incubation 3 h), 214.9 µg/mL; in data set [4] (binary system with 0.5% polymer 101, incubation 6 h) it was 126.4 µg/mL; in data set [4] (binary system with 0.5% polymer 102, incubation 0.5 h), 456.4 µg/mL; in data set [4] (binary system with 0.5% polymer 102, incubation 3 h), 389.1 µg/mL; in data set [4] (binary system with 0.5% polymer 102, incubation 6 h), 383.3 µg/mL. Besides, the “Concentration … after different incubation time” value in data set [4] (binary system with 0.5% polymer 103, incubation 0.5 h) was determined as 230.7 µg/mL; in data set [4] (binary system with 0.5% polymer 103, incubation 3 h), 231.0 µg/mL; in data set [4] (binary system with 0.5% polymer 103, incubation 6 h), 233.5 µg/mL; in data set [4] (binary system with 0.5% polymer 106, incubation 0.5 h), 469.5 µg/mL; in data set [4] (binary system with 0.5% polymer 106, incubation 3 h), 462.5 µg/mL; in data set [4] (binary system with 0.5% polymer 106, incubation 6 h), 478.8 µg/mL. Moreover, the “Concentration … after different incubation time” value came to 127.5 µg/mL in data set [4] (binary system with 0.5% polymer 107, incubation 0.5 h); 130.9 µg/mL in data set [4] (binary system with 0.5% polymer 107, incubation 3 h); 139.1 µg/mL in data set [4] (binary system with 0.5% polymer 107, incubation 6 h); 112.7 µg/mL in data set [4] (binary system with 0.5% polymer 110, incubation 0.5 h); 79.0 µg/mL in data set [4] (binary system with 0.5% polymer 110, incubation 3 h); 77.6 µg/mL in data set [4] (binary system with 0.5% polymer 110, incubation 6 h). Also, the “Concentration of guest molecule in solution” value in data set [4] (binary: 0.5% 102H) turned out to be 383.3 µg/mL; in data set [4] (binary: 0.5% 103E5), 233.5 µg/mL. Also, the “Times that of the initial medium” value in data set [4] (binary: 0.5% 102H) is 3.0 times; in data set [4] (binary: 0.5% 103E5) it was 1.8 times. In addition, the “solubility value given in Table 1 (basic information of natural flavonoids)” value in data set [2] (value follows the class name) was “Naringenin (CAS 480-41) derivatives, EUF-0.58 mg/ml”. In data set [5], the LogP result is listed as “LogP 2.71”.
